Where “and” joins values, the source holds several entries; their conditions need not be identical. Equal values may be shown once. Entries after “also recorded” stand apart in the source; their conditions may differ. Read-outs that look alike come from different tables or passages of the source. Marks after values point to notes of the source that are not given here.
What was measured:
[1] = Pharmacokinetics in NHP plasma after single s.c. injection, with plasma C3 levels
[2] = Pharmacokinetics after single i.v. injection; assay type: in vivo, cynomolgus monkeys
Protocol: FIG. 11 show graphs of peptide concentration over time in cynomolgus monkeys to which was administered a single 2 mg/kg intravenous injection of Cp40-KK (panel a), Cp40-KKK (panel b), mPEG(1 k)-Cp40 (panel c), and mPEG(3 k)-Cp40 (panel d). […]
In vivo pharmacokinetic studies were conducted, in which cynomolgus monkeys were administered single i.v. injections of mPEG(1 k)-Cp40, mPEG(3 k)-Cp40, Cp40-KK, or Cp40-KKK.

purified human C3b = target: T1, purified human C3b (Homo sapiens, UniProt P01024); test: SPR C3b-binding activity of compound present in vitreous samples
T1 construct: purchased Complement Technology, Inc., Tyler, TX
Protocol: To confirm that the compound present in the NHP vitreous maintains C3b-binding activity, which is a prerequisite for eliciting its inhibitory action across all complement pathways, surface plasmon resonance (SPR) binding experiments were conducted. Briefly, for a positive binding control, serial dilutions of Cp40-KKK (16, 8, 4, and 2 nM) were added to rabbit vitreous samples and flowed onto a Biacore CM5 chip immobilized with purified human C3b (Complement Technology Inc, Tyler, TX) (see FIG. 19A). Next, vitreous samples were collected from a Cp40-KKK injected eye at day 14 post-injection and subjected to heat-inactivation at 95° C. for 5 min. Both heat-inactivated and non-heat-inactivated samples were flowed onto a CM5 chip immobilized with purified human C3b as indicated above (FIG. 19B).

[3] = test system: classical pathway of complement; test: Classical pathway complement inhibition ELISA (C3b deposition) in normal human plasma; assay type: biochemical; conditions: human plasma diluted 1:40; mean of at least three experiments
Protocol: For this purpose, microtiter wells (NUNC) were coated with 50 μl of 1% ovalbumin in PBS (pH 7.4) at ambient temperature for 2 h. The wells were blocked with 200 μl of 1% BSA in PBS for 1 h, then coated with 50 μl of 1:1000 α-ovalbumin polyclonal antibody in PBS for 1 h. Between each step, the plate was washed thrice with 200 μl of 0.05% Tween 20 in PBS (PBS-T); 30 μl of VBS (Veronal buffer 1×; 5 mM veronal, pH 7.4, containing 150 mM NaCl, 0.5 mM CaCl2 and 0.5 mM MgCl2) were placed in all but the first well of each row of the 96-well plate, and 5 μM peptide solutions in VBS were prepared. […] Human plasma diluted 1:40 in VBS was incubated for 15 min with peptide of 0.005 to 2.5 μM. After washing with PBS-T, 50 μl/well of 1:1000 goat a-human C3 HRP conjugated antibody in 1% BSA in PBS was added to the wells and incubated for 1 h at room temperature. Complement fixation indicating activation was detected by the addition of HRP substrate (0.05% ABTS and 0.1% of 30% aqueous H2O2 in 0.1 M sodium citrate, pH 4.2) and read at 405 nm. The absorbance data obtained at 405 nm were translated into % inhibition, considering 100% to be equal to complement activation in the absence of peptide. The percent inhibition was plotted against the logarithm of concentrations, and the resulting data set was fitted to the equation “log(inhibitor) vs. normalized response” using GraphPad Prism 5 (La Jolla, CA). IC50 values were obtained from the fitted parameters of the mean of at least three independent experiments. Cp40 was always used as the internal control.

[4] = pH adjusted upon addition of PBS
[5] = NHP vitreous, day 14 post-injection

T1 sequence (P01024 23-667 limits assumed): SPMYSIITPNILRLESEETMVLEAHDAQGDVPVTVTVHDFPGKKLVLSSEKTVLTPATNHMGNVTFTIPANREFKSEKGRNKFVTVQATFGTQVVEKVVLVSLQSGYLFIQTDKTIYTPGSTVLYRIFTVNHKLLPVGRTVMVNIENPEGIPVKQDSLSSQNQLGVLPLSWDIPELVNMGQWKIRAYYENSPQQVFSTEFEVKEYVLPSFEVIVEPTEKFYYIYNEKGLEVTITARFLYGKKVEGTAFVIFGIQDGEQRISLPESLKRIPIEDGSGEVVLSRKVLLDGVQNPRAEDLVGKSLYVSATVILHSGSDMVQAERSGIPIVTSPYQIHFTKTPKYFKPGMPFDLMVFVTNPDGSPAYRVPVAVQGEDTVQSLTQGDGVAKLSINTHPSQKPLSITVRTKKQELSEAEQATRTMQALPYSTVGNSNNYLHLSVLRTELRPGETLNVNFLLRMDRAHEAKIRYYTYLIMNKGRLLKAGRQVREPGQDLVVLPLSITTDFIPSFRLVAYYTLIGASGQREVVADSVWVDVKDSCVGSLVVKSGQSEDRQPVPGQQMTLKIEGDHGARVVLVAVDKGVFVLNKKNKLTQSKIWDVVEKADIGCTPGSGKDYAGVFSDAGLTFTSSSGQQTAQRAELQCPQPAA
T1 sequence (P01024 749-1663 partner limits assumed): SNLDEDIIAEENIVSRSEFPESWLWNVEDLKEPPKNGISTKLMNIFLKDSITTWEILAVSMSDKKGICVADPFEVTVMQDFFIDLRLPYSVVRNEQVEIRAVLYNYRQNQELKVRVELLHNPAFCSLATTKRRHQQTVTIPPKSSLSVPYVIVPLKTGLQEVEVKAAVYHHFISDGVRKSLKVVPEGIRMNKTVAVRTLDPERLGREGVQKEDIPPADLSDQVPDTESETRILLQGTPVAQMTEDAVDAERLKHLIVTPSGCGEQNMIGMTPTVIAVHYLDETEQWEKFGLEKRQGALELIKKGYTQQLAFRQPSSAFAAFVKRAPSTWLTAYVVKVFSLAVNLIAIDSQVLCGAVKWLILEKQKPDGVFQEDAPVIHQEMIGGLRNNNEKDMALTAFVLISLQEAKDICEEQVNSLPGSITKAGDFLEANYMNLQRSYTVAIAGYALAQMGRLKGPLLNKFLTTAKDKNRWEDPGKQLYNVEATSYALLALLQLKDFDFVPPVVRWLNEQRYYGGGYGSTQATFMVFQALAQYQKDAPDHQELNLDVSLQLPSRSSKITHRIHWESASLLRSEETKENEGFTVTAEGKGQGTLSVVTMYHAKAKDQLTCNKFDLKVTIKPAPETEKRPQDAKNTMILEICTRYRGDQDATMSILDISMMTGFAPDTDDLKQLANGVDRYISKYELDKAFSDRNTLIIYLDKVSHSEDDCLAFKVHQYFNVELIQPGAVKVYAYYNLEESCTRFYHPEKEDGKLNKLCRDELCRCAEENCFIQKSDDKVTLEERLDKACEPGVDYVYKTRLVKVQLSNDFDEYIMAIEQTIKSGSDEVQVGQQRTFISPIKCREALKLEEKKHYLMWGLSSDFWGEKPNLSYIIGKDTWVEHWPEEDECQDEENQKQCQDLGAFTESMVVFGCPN

## CC[C@H](C)[C@H](NC(=O)[C@H](N)Cc1ccc(O)cc1)C(=O)N[C@H]1CSSC[C@@H](C(=O)N(C)[C@H](C(=O)N[C@@H](CCCCN)C(=O)N[C@@H](CCCCN)C(=O)N[C@@H](CCCCN)C(N)=O)[C@@H](C)CC)NC(=O)[C@H](CCCNC(=N)N)NC(=O)[C@H](Cc2c[nH]cn2)NC(=O)[C@H](C)NC(=O)CN(C)C(=O)[C@H](Cc2c[nH]c3ccccc23)NC(=O)[C@H](CC(=O)O)NC(=O)[C@H](CCC(N)=O)NC(=O)[C@H](Cc2cn(C)c3ccccc23)NC(=O)[C@H](C(C)C)NC1=O [Cp40-KKK, DTyr-Ile-[Cys-Val-Trp(Me)-Gln-Asp-Trp-Sar-Ala-His-Arg-Cys]-mlle-Lys-Lys-Lys—NH2]
After additional lyophilization from H2O
  pH: 9.5
At the stated concentration, indicator paper
  pH of the peptide solution in PBS: 8.5
[4]
  Conc. (mg/ml) at which pH in the 7 range was observed: 7 mg/ml and 7.0 mg/ml
  pH: 7.5*
[1]; 4 h after s.c. injection, one monkey
  Cp40-K fragment detectable in plasma: ≤ 5 µM
[1]; after s.c. injection, UPLC-ESI-MS
  in vivo Lys cleavage in plasma: one or two Lys residues are cleaved from Cp40-KKK in NHP plasma, but not the third; also recorded: no Cp40 was detected in any of the plasma samples; also recorded: almost completely metabolized into Cp40-KK and small amounts of Cp40-K
[1]; single s.c. 2 mg/kg
  decreased CL/F compared to Cp40: ~3 fold
  higher cmax than Cp40: ~2 fold
  increased AUC0-t compared to Cp40: ~2.6 fold
[1]; single s.c. 2 mg/kg, UPLC-ESI-MS, both animals
  plasma concentration of uncleaved Cp40-KKK at any time point: ≤ 2000 nM
[1]; single s.c. 2 mg/kg, SUM for Lys analogs, 2 mg/kg
  CL/F, apparent clearance: 2483 ((mg/kg)/(μM · h) and 2921 ((mg/kg)/(μM · h)
[2]; after i.v. injection
  in vivo Lys cleavage in plasma: metabolized into Cp40-KK and small amounts of Cp40-K
[2]; cynomolgus monkey, plasma, iv, 2 mg/kg, single i.v. injection, read-out: AUC0-120h
  AUC(0-t): 304 to 312 µM·h
[2]; single i.v. injection
  AUC0-120 h greater than Cp40-KK: over 3.5 fold
Purified human C3b; [5]
  C3b-binding signal, heat-inactivated vitreous sample: 10 relative units
  C3b-binding signal, non-heat inactivated vitreous sample: 2 relative units
Purified human C3b; spiked rabbit vitreous or injected NHP eye
  C3b binding in vitreous: binds to C3b in a dose-dependent manner; also recorded: maintains its C3b-binding activity
[3]
  IC50: 81.7 ± 5.3 nM
